Key:
[1] = RO membrane compatibility soak, overall conclusion; conditions: 300 ppm, simulated 1 year
[2] = RO membrane compatibility soak, clean water flux and salt rejection; conditions: Koch HRX; 57 ppm, simulated 3 Years, soak 234 hr, 77 F
Procedure: In particular, the effects of PFA on reverse osmosis members which contain a polyamide structure in comparison with known control chemicals was tested. Three different membranes were tested including Koch HRX, Hydranautics CPAS and Hydranautics ESPA2+. Membranes were soaked in duplicate, in chemistries according to Table 4.
Membranes were then conditioned in Ultrasil 110 at a pH of 11 for 90 minutes at 50° C., followed by a rinse in DI water.
Each of the chemistries, with the exception of PFA was refreshed daily. PFA was refreshed hourly. After the simulated exposure the membranes are rinsed with DI water and placed on the Flat Sheet Membrane skid (Model M20). The membranes were rinsed with DI water for 24 hours at standard UF pressure and temperature. Once 24 hours was completed the membranes were subjected to alkaline conditioning step until solution pH is 11. 15.14 grams of NaCl was added to the recirculating water (2000 ppm NaCl) and the system was allowed to continue circulating. The conductivity of each permeate tube and feed was then measured and recorded and shown as percent rejection. The percent rejection was determined by (conductivity of the feed−conductivity of the permeate)/(conductivity of the feed).

SMILES	flux and salt rejection results versus control (in words) [1]	Water Flux (LMH) Peracetic acid [2] [LMH]
O=COO [PFA, peroxyformic acid]	comparable results to that of the commercially-available control peroxyacetic acid compositions at 3 years	
CC(=O)OO [Peracetic acid]		75.22
